Test results published in article PMC10176470, “Engaging a Non-catalytic Cysteine Residue Drives Potent and Selective Inhibition of Caspase-6” (Journal of the American Chemical Society, 2023).

What was measured:
caspase-3 (C3) = molecular target: T1, caspase-3 (C3) (Homo sapiens, UniProt P42574); test: Caspase-3 biochemical activity assay with fluorogenic substrate; details: read-out: Casp-3 IC50
T1 sequence (P42574 29-175 limits assumed): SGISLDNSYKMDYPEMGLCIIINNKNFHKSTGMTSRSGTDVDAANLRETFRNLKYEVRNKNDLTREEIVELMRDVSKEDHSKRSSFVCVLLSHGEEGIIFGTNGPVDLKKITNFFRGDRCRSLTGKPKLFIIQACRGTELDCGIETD
Excerpt: Error bars represent the standard deviation of thre replicate measurements. […] Activity measured by the cleavage of aminofluorocoumarin-labeled peptides (see the Supporting Information for sequences). C = caspase.

[1] = system: lamin A cleavage by caspase-6 in SK-N-AS cells; test: Lamin cleavage assay (in-cell western after staurosporine induction); type: cell-based; details: Homo sapiens, 1 h compound then 10 μM staurosporine
C6 small subunit = molecular target: T2, C6 small subunit (Homo sapiens, UniProt P55212); test: Disulfide tethering assay (% labeling by LC/MS), small subunit; type: binding
T2 construct: 194-293-Leu-Glu-His6 (SS) from caspase-6 cDNA (Origene); Leu-Glu-His6 (C); made in house; host or cells: E. coli Rosetta 2 pLysS DE3
T2 sequence (P55212 194-293): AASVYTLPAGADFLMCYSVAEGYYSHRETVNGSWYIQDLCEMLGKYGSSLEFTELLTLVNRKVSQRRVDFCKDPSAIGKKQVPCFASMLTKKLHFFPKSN
T2 sequence (P55212 30-179): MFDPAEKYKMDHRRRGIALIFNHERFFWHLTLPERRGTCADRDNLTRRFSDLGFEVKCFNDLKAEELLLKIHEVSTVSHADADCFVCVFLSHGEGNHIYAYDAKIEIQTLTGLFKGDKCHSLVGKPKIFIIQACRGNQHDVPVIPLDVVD

C6 large subunit = molecular target: T3, C6 large subunit (Homo sapiens, UniProt P55212); test: Disulfide tethering assay (% labeling by LC/MS), large subunit; type: binding
T3 construct: Residues 30-179 (LS); made in house; host or cells: E. coli Rosetta 2 pLysS DE3
T3 sequence (P55212 30-179): as above
T3 sequence (P55212 194-293): as the sequence (P55212 194-293) above

IC50 (caspase-3 (C3)) [µM]	IC50 [1] [µM]	C6 % labeling (MS) small subunit (C6 small subunit) [%]	C6 % labeling (MS) large subunit (C6 large subunit) [%]	Compound
> 500	14.2 ± 2.4			C=CS(=O)(=O)N1CCC[C@@H](C(=O)Nc2ccc(OC(F)(F)F)cc2)C1 [2a]
> 500				C=CS(=O)(=O)N1C[C@H](C(=O)Nc2ccc(OC(F)(F)F)cc2)C[C@H](c2ccccc2)C1 (racemic) [(±)-3-c]
		76	2	O=C(NCCS)[C@H]1CCCN(C(=O)Cc2ccc(OC(F)(F)F)cc2)C1 [compound 1]

Compound	IC50 (caspase-3 (C3)) [µM]	IC50 [1] [µM]	C6 % labeling (MS) small subunit (C6 small subunit) [%]	C6 % labeling (MS) large subunit (C6 large subunit) [%]
C=CS(=O)(=O)N1C[C@H](C(=O)Nc2ccc(OC(F)(F)F)cc2)C[C@@H](c2ccccc2)C1 (racemic) [(±)-3-t]	> 500			
